From ChEMBL document CHEMBL1201862, “PubChem BioAssay data set” (2004)
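Values below derive from 48-hour exposures of cells grown in 96-well plates, with endpoints linearly interpolated between the two concentrations bracketing the appropriate inhibition level. At the GI50, growth is halved.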 The source made the active and inactive calls. Rule as the data show it: active = GI50 up to about 1.1 µM and inactive = higher.

Assays:
Assay in all cases: growth of human tumour cells (NCI), 48 h
[1] = system: EKVX
[2] = system: MDA-MB-231
[3] = system: CAKI-1
[4] = system: SF-295
[5] = system: SF-539
[6] = system: Hs-578T
[7] = system: HCT-15
[8] = system: Malme-3M
[9] = system: UO-31
[10] = system: A549
[11] = system: OVCAR-8
[12] = system: LOX IMVI
[13] = system: TK-10
[14] = system: SNB-19
[15] = system: MCF7
[16] = system: SK-MEL-28
[17] = system: COLO 205
[18] = system: SN12C
[19] = system: SF-268
[20] = system: OVCAR-4

SMILES | GI50 [1] | GI50 [2] | GI50 [3] | GI50 [4] | GI50 [5] | GI50 [6] | GI50 [7] | GI50 [8] | GI50 [9] | GI50 [10] | GI50 [11] | GI50 [12] | GI50 [13] | GI50 [14] | GI50 [15] | GI50 [16] | GI50 [17] | GI50 [18] | GI50 [19] | GI50 [20]
CC(C)(C)[Si](C)(C)OCC1OC(n2ccc(=O)[nH]c2=O)C(O[Si](C)(C)C(C)(C)C)/C1=C/C#N (configuration not stated) | 24.4 µM (inactive) | 8.41 µM (inactive) | 8.43 µM (inactive) | 0.67 µM (active) | 5.14 µM (inactive) | 5.73 µM (inactive) | 4.9 µM | 12.8 µM (inactive) | 4.89 µM (inactive) | 4.18 µM (inactive) | 6.65 µM (inactive) | 5 µM (inactive) | 12.7 µM (inactive) | 31.8 µM (inactive) | 3.96 µM (inactive) | 1.49 µM (inactive) | 2.61 µM (inactive) | 3.78 µM (inactive) | 6.56 µM (inactive) | > 29.2 µM (inactive)
Cc1ccc(/C=C/C(=N/NC(=O)N/N=C(/C=C/c2ccc(C)cc2)C(C)(C)CN2CCCCC2)C(C)(C)CN2CCCCC2)cc1 | 2.67 µM (inactive) | 1.79 µM (inactive) | 2.31 µM (inactive) | 1.71 µM (inactive) | 1.77 µM (inactive) | 1.52 µM (inactive) | 1.57 µM | 1.67 µM (inactive) | 0.813 µM (active) | 1.52 µM (inactive) | 1.54 µM (inactive) | 1.16 µM (inactive) | 1.74 µM (inactive) | 2.11 µM (inactive) | 1.47 µM (inactive) | 1.73 µM (inactive) | 1.53 µM (inactive) | 1.61 µM (inactive) | 1.81 µM (inactive) | 2.07 µM (inactive)
C=CCN1C(=O)N/C(=C\c2ccc(Cl)cc2)C1=O | 93.8 µM (inactive) | > 100 µM (inactive) | > 100 µM (inactive) | > 100 µM (inactive) | > 100 µM (inactive) | > 100 µM (inactive) | > 100 µM | > 100 µM (inactive) |  | 83.9 µM (inactive) | > 100 µM (inactive) | > 100 µM (inactive) | > 100 µM (inactive) | > 100 µM (inactive) | > 100 µM (inactive) | > 100 µM (inactive) | > 100 µM (inactive) | > 100 µM (inactive) | > 100 µM (inactive) | > 100 µM (inactive)
CCOC(=O)c1cc2ncccc2c2ccccc12 | > 100 µM (inactive) | > 100 µM (inactive) | > 100 µM (inactive) | > 100 µM (inactive) |  | > 100 µM (inactive) | > 100 µM | > 100 µM (inactive) | > 100 µM (inactive) | > 100 µM (inactive) | > 100 µM (inactive) | > 100 µM (inactive) | > 100 µM (inactive) | > 100 µM (inactive) | > 100 µM (inactive) | > 100 µM (inactive) | > 100 µM (inactive) | > 100 µM (inactive) | > 100 µM (inactive) | > 100 µM (inactive)
N#C/C(=C\n1ccc(=O)[nH]c1=S)C(N)=O | > 100 µM (inactive) | > 100 µM (inactive) | > 100 µM (inactive) | > 100 µM (inactive) | > 100 µM (inactive) | > 100 µM (inactive) | > 100 µM | > 100 µM (inactive) | > 100 µM (inactive) | > 100 µM (inactive) | > 100 µM (inactive) | > 100 µM (inactive) |  | > 100 µM (inactive) | > 100 µM (inactive) | > 100 µM (inactive) | > 100 µM (inactive) | > 100 µM (inactive) | > 100 µM (inactive) | > 100 µM (inactive)
Cc1ccc(S(=O)(=O)NNC(=O)c2cc(C)c(C)cc2N)cc1 | > 100 µM (inactive) | > 100 µM (inactive) | > 100 µM (inactive) | > 100 µM (inactive) | > 100 µM (inactive) | 84.1 µM (inactive) | > 100 µM | > 100 µM (inactive) | > 100 µM (inactive) |  | 60.4 µM (inactive) | > 100 µM (inactive) |  | > 100 µM (inactive) | > 100 µM (inactive) | > 100 µM (inactive) | > 100 µM (inactive) | > 100 µM (inactive) |  | > 100 µM (inactive)
NC(=O)C(=CNC(=S)Nc1ccccc1)C(N)=O | > 100 µM (inactive) | > 100 µM (inactive) | > 100 µM (inactive) | > 100 µM (inactive) | > 100 µM (inactive) | 45 µM (inactive) | > 100 µM | > 100 µM (inactive) |  | > 100 µM (inactive) | > 100 µM (inactive) | > 100 µM (inactive) |  | > 100 µM (inactive) | > 100 µM (inactive) | > 100 µM (inactive) | > 100 µM (inactive) | > 100 µM (inactive) | > 100 µM (inactive) | > 100 µM (inactive)
Cc1ccc(C(=O)Nc2ccc(CP(=O)(O)O)cc2)cc1NC(=O)Nc1cc(C(=O)Nc2ccc(CP(=O)(O)O)cc2)ccc1C | > 100 µM (inactive) | > 100 µM (inactive) | > 100 µM (inactive) | > 100 µM (inactive) | > 100 µM (inactive) | > 100 µM (inactive) | > 100 µM | > 100 µM (inactive) | > 100 µM (inactive) | > 100 µM (inactive) | > 100 µM (inactive) | > 100 µM (inactive) | > 100 µM (inactive) |  | > 100 µM (inactive) | > 100 µM (inactive) | > 100 µM (inactive) | > 100 µM (inactive) | > 100 µM (inactive) | > 100 µM (inactive)
S=C(N/N=C/c1ccccn1)N1CCCCC1 | 0.07 µM (active) | < 0.01 µM (active) | < 0.0153 µM (active) | 0.121 µM (active) | 0.135 µM (active) | 0.902 µM (active) | < 0.01 µM | < 0.0397 µM (active) | 0.0131 µM (active) | < 0.0129 µM (active) | < 0.01 µM (active) | < 0.01 µM (active) | 0.0205 µM (active) | 1.23 µM (inactive) | < 0.01 µM (active) | 0.297 µM (active) | < 0.01 µM (active) | < 0.0394 µM (active) | < 0.0178 µM (active) | 
CN(C)CCCNC(=O)c1c(O)c2ccccc2[nH]c1=O | > 100 µM (inactive) | > 100 µM (inactive) | 47.2 µM (inactive) | 22.9 µM (inactive) | > 100 µM (inactive) | > 100 µM (inactive) | > 100 µM | > 100 µM (inactive) | 14.5 µM (inactive) | > 100 µM (inactive) | > 100 µM (inactive) | > 100 µM (inactive) | > 100 µM (inactive) |  | > 100 µM (inactive) | > 100 µM (inactive) | 41.1 µM (inactive) | > 100 µM (inactive) | 83.2 µM (inactive) | > 100 µM (inactive)
CCOc1ccc(/C=N/[N+](C)(C)C)cc1OCC |  | > 10 µM (inactive) | > 10 µM (inactive) | > 10 µM (inactive) | > 10 µM (inactive) | > 10 µM (inactive) | > 10 µM | > 10 µM (inactive) |  | > 10 µM (inactive) | > 10 µM (inactive) | > 10 µM (inactive) | > 10 µM (inactive) | > 10 µM (inactive) | > 10 µM (inactive) | > 10 µM (inactive) | > 10 µM (inactive) | > 10 µM (inactive) | > 10 µM (inactive) | > 10 µM (inactive)
COc1ccc(C2SC(=N)Nc3c2c(C)nn3C(=O)c2ccncc2)cc1OC (configuration not stated) | > 10 µM (inactive) | > 10 µM (inactive) | > 10 µM (inactive) | > 10 µM (inactive) | > 10 µM (inactive) | > 10 µM (inactive) | > 10 µM | > 10 µM (inactive) |  | > 10 µM (inactive) | > 10 µM (inactive) | > 10 µM (inactive) | > 10 µM (inactive) | > 10 µM (inactive) | > 10 µM (inactive) | > 10 µM (inactive) | > 10 µM (inactive) | > 10 µM (inactive) | > 10 µM (inactive) | > 10 µM (inactive)
CC(=O)O[C@H]1CC[C@H]2[C@@H]3CCC4=C(C(=O)C=CC4(C)OC(C)=O)[C@H]3CC[C@]12C (some centres not stated) | > 100 µM (inactive) | 41 µM (inactive) | > 100 µM (inactive) | 98.4 µM (inactive) | 43.6 µM (inactive) | > 100 µM (inactive) | 64.3 µM | > 100 µM (inactive) | 55.3 µM (inactive) | 90.2 µM (inactive) | 39.5 µM (inactive) | 38.1 µM (inactive) | > 100 µM (inactive) | > 100 µM (inactive) | 26.4 µM (inactive) | > 100 µM (inactive) |  | 41.5 µM (inactive) | 83.4 µM (inactive) | > 100 µM (inactive)
Cc1cc(S(=O)(=O)Nc2nc3ccccc3n2-c2ccccc2)c(S)cc1Cl | > 100 µM (inactive) | > 100 µM (inactive) | > 100 µM (inactive) | 44.4 µM (inactive) | > 100 µM (inactive) | > 100 µM (inactive) | > 100 µM | > 100 µM (inactive) | > 100 µM (inactive) | > 100 µM (inactive) | > 100 µM (inactive) | > 100 µM (inactive) |  | 82.2 µM (inactive) | > 100 µM (inactive) | > 100 µM (inactive) | > 100 µM (inactive) |  | > 100 µM (inactive) | > 100 µM (inactive)
CCCCc1ccc(Nc2nc(Cl)c3ncn(COCCOC(C)=O)c3n2)cc1 | 6.19 µM (inactive) | 15.3 µM (inactive) | 1.89 µM (inactive) | 17.4 µM (inactive) | 19.5 µM (inactive) | 21.7 µM (inactive) | 16.7 µM | 17.3 µM (inactive) | 16 µM (inactive) | 20.8 µM (inactive) | 18.5 µM (inactive) | 14.8 µM (inactive) | 20.3 µM (inactive) | 19.9 µM (inactive) | 27.4 µM (inactive) |  | 23.5 µM (inactive) | 21.8 µM (inactive) | 19.4 µM (inactive) | 33.7 µM (inactive)
